Results taken from patent US6063803A, “Octahydropyrrolo-[3,4-c]carbazoles useful as analgesic agents” (Ortho-McNeil Pharmaceutical, Inc., priority 1999, dated 2000).
pKi: −log10 of the molar value.

Legend:
[1] = rat air-induced writhing (abdominal constriction) assay; assay type: in vivo, rats; details: rat air-induced writhing
Experimental: The analgesic activity was determined in another model using rats as the test animal. The procedure was essentially described by P. VonVoightlander et al. in Air-induced Writhing, a Rapid Broad Spectrum Assay for Analgesics, Drug Dev. Res., 2, 577-81, (1982). The test compound or vehicle was administered p.o. (2 mL/kg) and after 30 min, the animals received an i.p. injection of air (10 mL). The animals were placed into individual observation chambers and observed for 30 min for the occurrence of abdominal constriction as defined above. The percent inhibition of this response was calculated as follows. The % inhibition of response, i.e., % analgesia is equal to the number nonresponding drug-treated animals×100 divided by the number of animals in the group. […] This effect lasted for 2-3 hours.

[2] = molecular target: T1, α2-adrenergic receptor (Rattus norvegicus, UniProt P22909); assay: α2-adrenergic receptor binding (3H-para-aminoclonidine, rat cortex synaptic membranes); design: species or system rat (Wistar); details: 25° C., 20 min
T1 construct: aliquots of the synaptic membrane fraction, the ligand; from tissue; host or cells: cerebral cortex synaptic membranes of male Wistar rats
T1 sequence (P22909 1-465): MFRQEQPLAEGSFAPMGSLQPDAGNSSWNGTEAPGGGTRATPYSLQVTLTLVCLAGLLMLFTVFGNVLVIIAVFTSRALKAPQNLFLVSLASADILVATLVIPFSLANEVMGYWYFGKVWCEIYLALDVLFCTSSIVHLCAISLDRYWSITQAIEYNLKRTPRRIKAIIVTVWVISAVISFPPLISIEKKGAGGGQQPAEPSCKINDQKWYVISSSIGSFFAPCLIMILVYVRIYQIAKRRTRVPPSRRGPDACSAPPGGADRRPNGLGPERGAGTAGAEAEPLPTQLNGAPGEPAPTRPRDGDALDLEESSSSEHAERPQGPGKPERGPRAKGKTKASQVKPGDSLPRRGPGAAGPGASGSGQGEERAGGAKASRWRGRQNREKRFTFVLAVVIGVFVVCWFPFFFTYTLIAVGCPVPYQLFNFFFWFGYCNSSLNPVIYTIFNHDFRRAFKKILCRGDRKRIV
Experimental: The α2 -adrenergic activity of the compounds was determined by the following in vitro assay. Male, Wistar rats (150-250 g, VAF, Charles River, Kingston, N.Y.) were sacrificed by cervical dislocation and their brains removed and immediately placed in ice cold HEPES buffered sucrose. The cortex was dissected out and homogenized in 20 volumes of HEPES sucrose in a Teflon®-glass homogenizer. The homogenate was centrifuged at 1000×g for 10 min, and the resulting supernatant centrifuged at 42,000×g for 10 min. The resulting pellet was resuspended in 30 volumes of 3 mM potassium phosphate buffer, pH 7.5, preincubated at 25° C. for 30 min and recentrifuged. The resulting pellet was resuspended as described above and used for the receptor binding assay. Incubation was performed in test tubes containing phosphate buffer, 2.5 mM MgCl2, aliquots of the synaptic membrane fraction, the ligand ^3 H-para-aminoclonidine and test drug at 25° C. for 20 min. The incubation was terminated by filtration of the tube contents through glass fiber filter sheets. The sheets were washed with 10 mM HEPES buffer and the adhering radioactivity was quantified by liquid scintillation spectrometry.
Dose-response data are analyzed with LIGAND, a nonlinear curve fitting program designed specifically for the analysis of ligand binding data. […]

[3] = mouse acetylcholine bromide-induced abdominal constriction assay; assay type: in vivo, mice (Male, Cr1:CD-1)
Experimental: The analgesic activity of compounds of Formula I were determined in the following in vivo assay. The procedure was run essentially as described by H. Collier et al. in B. J. Pharmacol. Chemother., 32: 295-310, 1968, with minor modifications. Mice (Male, Cr1:CD-1, Charles River Laboratories) were used in the following example. The test drugs or appropriate vehicle were administered orally (10 mL/kg, p.o.) or subcutaneously (10 mL/kg, s.c.) and 30 minutes later the animal received an intraperitoneal (i.p.) injection of 5.5 mg/kg acetylcholine bromide. The mice were then placed in glass bell jars and observed for a ten minute observation period for the occurrence of an abdominal constriction response (defined as a wave of constriction and elongation passing caudally along the abdominal wall, accompanied by a twisting of the trunk and followed by extension of the hind limbs). The percent inhibition of this response to antinociceptive stimulus (equated to % analgesia) was calculated as follows: The % inhibition of response, i.e., % analgesia is equal to the number of non-responding drug-treated animals×100 divided by the number of animals in the group.
The ED50 values and their 95% fiducial limits were determined by a computer assisted probit analysis. […] This effect lasted for 4-5 hours.
Table A lists the % inhibition for some compounds of the invention. Unless otherwise indicated the compounds were administered s.c. at 30 mg/kg. [drawing 63]

[4] = mouse hot plate assay (48° C.); assay type: in vivo, mice; details: mouse hot plate 48° C.
Experimental: The test was essentially described by N. Eddy and D. Leimbach, Synthetic Analgesics II Dithienylbutenyl- and Dithienylbutylamines, J. Pharmacol. Exp. Ther., 107, 385-93 (1953) and J. O'Callaghan and S. Holtzman, Qualification of the Analgesic Activity of Narcotic Antagonists by a Modified Hot-Plate Procedure, J. Pharmacol. Exp. Ther, 192, 497-505 (1975), with minor modifications. Mice were placed on a heated surface (48° C.) and the time interval (seconds) between placement and a shaking, licking, or tucking of the hind paw was recorded as the predrug latency response. This procedure was repeated 30 minutes after the administration of a test compound (p.o., 10 mL/kg). The percent maximum possible antinociceptive effect (% MPE) was determined using the following formula: % MPE=100×(Test latency-Predrug latency)/(Cutoff time-Predrug Latency), using the predrug latency of each animal and cutoff time established to prevent injury to the animal. The cutoff time was 90s.
The ED50 value and 95% confidence intervals were determined using a computer-assisted linear regression analysis of the dose-response curve, including an analysis of variance test for linearity. Oral dosing of Compound 58 produced an analgesic effect after 15 min. This effect lasted for one hour.

[5] = mouse abdominal constriction, oral dosing

In the case of CN1CC2CCc3[nH]c4ccccc4c3C2C1 (single isomer, unassigned) [Compound 58], the ED50 ([1]; po, p.o., read-out: ED50) was 23.1 mg/kg, the “analgesic effect observed, time after oral dosing” value ([1]; oral dosing) was 30 min and the “duration of analgesic effect” value ([1]; oral dosing) was 2 to 3 h. The pKi [2] was 8.03, the responders at 30 mg/kg ([3]; Mus musculus, 0.5 h, 30 mg/kg po, acetylcholine bromide 5.5 mg/kg i.p. 30 min later, read-out: % inhibition @ 30 mg/kg (po)) was 100% and the “analgesic effect observed, time after oral dosing” value [3, 5] was 15 min. For the same compound, the “duration of analgesic effect” value [3, 5] was 4 to 5 h, the ED50 ([3]; mouse acetylcholine abdominal constriction, probit analysis, read-out: ED50) was 5.8 mg/kg and the “analgesic effect, time after oral dosing” value ([4]; oral dosing) was 15 min. The ED50 ([4]; po, 0.5 h, p.o., cutoff 90s, read-out: ED50) was 14.2 mg/kg.
